Source: patent US7521469B2, “Phosphinic amino acid compounds” (Les Laboratoires Servier, priority 2005, dated 2009)

What was measured:
[1] = target: ACE (recombinant human form) (Homo sapiens, UniProt P12821); assay: In vitro inhibitory effect on angiotensin converting enzyme (ACE), quenched-fluorescence substrate; format: biochemical; settings: inhibitor incubated with enzyme 45 minutes; substrate Mca-Arg-Pro-Pro-Gly-Phe-Ser-Pro-DpaCOOH 5 μM
Experimental: (§1) In vitro inhibitory effect on angiotensin converting enzyme (ACE) and endothelin converting enzyme (ECE)
(§2) In order to compare their specificity, the compounds of the Examples were tested on 2 enzymes: ACE (recombinant human form) and ECE (recombinant human form of the isoform ECE-1c).
(§3) The tests were carried out in duplicate in 96-well plates. The inhibitor was incubated together with the enzyme for 45 minutes before the addition of a quenched-fluorescence substrate. The fluorescence emitted was detected and measured in a Fluoroscan Ascent plate reader (Thermo-Labsystems).
(§4) The fluorogenic substrates used are: Mca-Arg-Pro-Pro-Gly-Phe-Ser-Pro-DpaCOOH (5 μM) with ACE, and Mca-Arg-Pro-Pro-Gly-Phe-Ser-Ala-Phc-Lys(Dnp)COOH (5 μM; R&D Systems) with ECE.

[2] = target: T1, ECE (recombinant human form of the isoform ECE-1c) (Homo sapiens, UniProt P42892); assay: In vitro inhibitory effect on endothelin converting enzyme (ECE), quenched-fluorescence substrate; format: biochemical; settings: inhibitor incubated with enzyme 45 minutes; substrate Mca-Arg-Pro-Pro-Gly-Phe-Ser-Ala-Phc-Lys(Dnp)COOH 5 μM
T1 sequence (P42892 1-754 isoform P42892-3): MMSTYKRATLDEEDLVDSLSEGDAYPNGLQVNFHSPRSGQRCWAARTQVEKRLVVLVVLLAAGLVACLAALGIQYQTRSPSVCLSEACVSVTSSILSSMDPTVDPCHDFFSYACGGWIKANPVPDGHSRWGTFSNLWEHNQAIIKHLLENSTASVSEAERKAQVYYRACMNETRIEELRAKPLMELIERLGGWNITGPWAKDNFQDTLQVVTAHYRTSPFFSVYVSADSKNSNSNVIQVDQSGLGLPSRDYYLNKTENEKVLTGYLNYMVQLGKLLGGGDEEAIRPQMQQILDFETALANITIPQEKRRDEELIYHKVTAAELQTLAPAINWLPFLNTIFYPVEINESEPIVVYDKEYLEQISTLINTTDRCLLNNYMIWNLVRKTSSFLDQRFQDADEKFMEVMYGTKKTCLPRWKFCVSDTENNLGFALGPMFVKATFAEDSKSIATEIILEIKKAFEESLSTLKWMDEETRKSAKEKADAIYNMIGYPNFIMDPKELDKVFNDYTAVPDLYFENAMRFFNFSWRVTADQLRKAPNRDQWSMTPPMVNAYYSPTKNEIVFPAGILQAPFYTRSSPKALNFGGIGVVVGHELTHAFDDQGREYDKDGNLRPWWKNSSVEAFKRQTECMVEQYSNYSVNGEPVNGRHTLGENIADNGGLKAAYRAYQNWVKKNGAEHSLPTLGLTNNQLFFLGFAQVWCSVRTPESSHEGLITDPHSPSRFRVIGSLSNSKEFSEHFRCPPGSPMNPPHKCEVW
Experimental: as §1, §2, §3, §4

ACE (recombinant human form), sequence (P12821 30-1306): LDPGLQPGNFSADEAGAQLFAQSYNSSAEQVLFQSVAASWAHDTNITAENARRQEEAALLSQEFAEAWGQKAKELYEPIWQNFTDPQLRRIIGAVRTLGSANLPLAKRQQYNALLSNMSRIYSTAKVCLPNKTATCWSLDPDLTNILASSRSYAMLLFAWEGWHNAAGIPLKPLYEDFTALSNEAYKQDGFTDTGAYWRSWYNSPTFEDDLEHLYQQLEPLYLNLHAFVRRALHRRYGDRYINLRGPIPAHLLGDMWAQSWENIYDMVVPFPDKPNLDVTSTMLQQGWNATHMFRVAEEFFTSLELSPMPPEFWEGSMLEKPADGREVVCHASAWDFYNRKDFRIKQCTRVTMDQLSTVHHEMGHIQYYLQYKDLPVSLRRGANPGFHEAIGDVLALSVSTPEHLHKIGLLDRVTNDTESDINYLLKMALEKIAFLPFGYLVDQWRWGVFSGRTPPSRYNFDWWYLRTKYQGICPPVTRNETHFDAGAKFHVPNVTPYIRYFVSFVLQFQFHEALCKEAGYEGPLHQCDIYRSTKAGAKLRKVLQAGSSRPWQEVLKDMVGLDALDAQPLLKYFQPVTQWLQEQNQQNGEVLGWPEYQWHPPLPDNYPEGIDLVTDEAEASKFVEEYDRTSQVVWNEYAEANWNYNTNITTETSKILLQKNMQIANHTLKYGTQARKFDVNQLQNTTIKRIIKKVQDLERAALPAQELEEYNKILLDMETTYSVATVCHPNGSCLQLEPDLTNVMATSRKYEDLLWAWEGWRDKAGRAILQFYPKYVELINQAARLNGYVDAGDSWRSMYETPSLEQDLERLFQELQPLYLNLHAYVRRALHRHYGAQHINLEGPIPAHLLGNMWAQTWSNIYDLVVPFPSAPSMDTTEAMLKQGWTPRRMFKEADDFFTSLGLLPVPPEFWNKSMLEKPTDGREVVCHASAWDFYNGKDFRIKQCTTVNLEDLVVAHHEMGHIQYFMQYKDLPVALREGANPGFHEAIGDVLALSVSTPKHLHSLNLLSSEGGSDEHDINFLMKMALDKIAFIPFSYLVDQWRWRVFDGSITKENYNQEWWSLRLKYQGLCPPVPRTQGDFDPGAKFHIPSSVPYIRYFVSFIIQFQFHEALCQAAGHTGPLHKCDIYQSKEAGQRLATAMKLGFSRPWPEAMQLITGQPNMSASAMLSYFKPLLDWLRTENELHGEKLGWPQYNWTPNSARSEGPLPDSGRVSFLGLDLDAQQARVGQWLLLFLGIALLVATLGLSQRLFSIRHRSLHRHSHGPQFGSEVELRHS

Row | SMILES | IC50 [1] [nM] | IC50 [2] [nM]
1 | O=C(N[C@@H](Cc1ccccc1)P(=O)(O)C[C@H](Cc1cc(-c2ccccc2)no1)C(=O)N[C@@H](Cc1ccc(O)cc1)C(=O)O)OCc1ccccc1 [Example 3, (5R,8R,11S)-5-Benzyl-6-hydroxy-11-(4-hydroxybenzyl)-3,9-dioxo-1-phenyl-8-[(3-phenyl-5-isoxazolyl)methyl]-2-oxa-4,10-diaza-6-phosphadodecan-12-oic acid 6-oxide] | 1.4 | 1.4
2 | O=C(N[C@@H](Cc1ccccc1)P(=O)(O)C[C@H](Cc1cc(-c2ccccc2)no1)C(=O)N[C@@H](Cc1ccccc1)C(=O)O)OCc1ccccc1 [Example 2, (5R,8R,11S)-5,11-Dibenzyl-6-hydroxy-3,9-dioxo-1-phenyl-8-[(3-phenyl-5-isoxazolyl)methyl]-2-oxa-4,10-diaza-6-phosphadodecan-12-oic acid 6-oxide] | 3.8 | 7.7
3 | O=C(N[C@@H](Cc1ccccc1)P(=O)(O)C[C@H](Cc1cc(-c2ccccc2)no1)C(=O)N[C@@H](Cc1c[nH]c2ccccc12)C(=O)O)OCc1ccccc1 [Example 1, (5R,8R,11S)-5-Benzyl-6-hydroxy-11-(1H-indol-3-ylmethyl)-3,9-dioxo-1-phenyl-8-[(3-phenyl-5-isoxazolyl)methyl]-2-oxa-4,10-diaza-6-phosphadodecan-12-oic acid 6-oxide] | 36 | 8
